Where a name gives a salt, the structure may show the parent alone.

The test system of the first experiment is human PRP (platelet rich plasma). Kind of experiment: Pharmacological test 1: inhibition of ADP-induced platelet aggregation in human PRP. Type of experiment: cell-based. As to conditions: Homo sapiens, Platelet, platelet aggregation, ADP 5 μM inducer. How it is done:
Pharmacological test 1 Inhibition of platelet aggregation
The effect of the compound according to the present invention on inhibiting the platelet aggregation was examined with human PRP (platelet rich plasma).
Nine volumes of a blood sample was taken out of the vein of a normal human with a syringe in which one volume of a 3.8% sodium citrate solution was charged. The blood sample was centrifuged at 170×g at room temperature for 10 minutes. The supernatant thus obtained was isolated as PRP. The residual blood sample that PRP had been taken out was centrifuged at 2,700×g for 15 minutes. The supernatant was then taken as platelet poor plasma (PPP).
Platelet aggregation test was conducted with an aggligometer (PAM-8C; manufactured by MEBANICKS Co., Ltd.). Compounds to be tested were dissolved in a 50% DMSO saline, a 50% methanol saline or physiological saline. The compound and PRP were preincubated for 2 minutes. The ADP (CHRONO-PAR REAGENTS 384 ADP, CHRONO-LOG Corp.) was used as an inducer in the form of a dilution with saline so that the final concentration is 5 μM.
Anti-platelet aggregation activity was obtained as an inhibition rate to platelet aggregation effect of ADP in the absence of a compound to be tested as follows: [formula] Physiological test 2 Inhibition of fibrinogen bonding to platelet GPIIb/IIIa
As usually defined, the IC50 is the point on the concentration scale where inhibition reaches its midpoint. A low value points to greater potency in that assay. For the compound `O=C(O)COc1ccc(C(=O)CNC(=O)c2cc3c(s2)CCCNC3)cc1OCC(=O)O` [Example 30, [[4-[[[(5,6,7,8-tetrahydro-4H-thieno[3.2-c]azepin-2-yl)carbonyl]amino]acetyl]-o-phenylene]dioxy]diacetic acid trifluoroacetate], half-maximal inhibition (IC50) was put at 1.9 µM.

In turn, `CN(CC(=O)c1ccc(OCC(=O)O)c(OCC(=O)O)c1)C(=O)[C@H]1CC[C@H](C(=N)N)CC1` [Example 58, [[4-[[[trans-4-amidinocyclohexyl]carbonyl-N-methylamino]acetyl]-o-phenylene]dioxy]diacetic acid trifluoroacetate] yielded an IC50 of 0.14 µM. In the case of `O=C(O)COc1ccc(CCNC(=O)c2cc3c(s2)CCNC3)cc1` [Example 39, 4-[2-[[(4,5,6,7-tetrahydrothieno[3,2-c]pyridin-2-yl)carbonyl]amino]ethyl]phenoxyacetic acid trifluoroacetate], the midpoint of inhibition, the IC50, lay at 0.26 µM. Compound `CC(=O)N(CCc1ccc(OCC(=O)O)c(OCC(=O)O)c1)Cc1cc2c(s1)CCNC2` [Example 41, [[4-[2-[N-[(4,5,6,7-tetrahydrothieno[3,2-c]pyridin-2-yl)methyl]-N-acetylamino]ethyl]-o-phenylene]dioxy]diacetic acid trifluoroacetate] came in with an IC50 of 3.3 µM. On the same count and under the same terms, the result for `O=C(O)COc1ccc(C(=O)CNC(=O)c2cc3c(s2)CCNCC3)cc1OCC(=O)O` [Example 31, [[4-[[[(5,6,7,8-tetrahydro-4H-thieno[2,3-d]azepin-2-yl)carbonyl]amino]acetyl]-o-phenylene]dioxy]diacetic acid trifluoroacetate] reads 0.15 µM; that for `O=C(O)COc1ccc(C(=O)CNC(=O)c2cc3c(s2)CCNC3)c(OCC(=O)O)c1` [Example 25, [[4-[[[(4,5,6,7-tetrahydrothieno[3.2-c]pyridin-2-yl)carbonyl]amino]acetyl]-m-phenylene]dioxy]diacetic acid trifluoroacetate], 1.5 µM. Same read-out and setting: to `Cc1oc(=O)oc1COC(=O)COc1ccc(C(=O)CNC(=O)c2cc3c(s2)CCNC3)cc1OCC(=O)OCc1oc(=O)oc1C` [Example 42, Di-(5-methyl-2-oxodioxol-4-yl)methyl [[4-[[(4,5,6,7-tetrahydrothieno[3,2-c]pyridin-2-yl)-carbonyl]amino]acetyl]-o-phenylene]dioxy]diacetic acid trifluoroacetate] belongs 0.34 µM.

Compound `O=C(COc1ccc(C(=O)CNC(=O)c2cc3c(s2)CCNC3)cc1OCC(=O)OC1CCCCC1)OC1CCCCC1` [Example 57, Dicyclohexyl [[4-[[[(4,5,6,7-tetrahydrothieno[3,2-c]pyridin-2-yl)carbonyl]amino]acetyl]-o-phenylene]dioxy]diacetate] gave an IC50 of 3.2 µM.

As for `O=C(O)COc1ccc(C(O)CNC(=O)c2cc3c(s2)CCNC3)cc1OCC(=O)O` (stereo not drawn) [Example 45, [[4-[[2-[(4,5,6,7-tetrahydrothieno[3,2-c]pyridin-2-yl)carbonyl]amino]-1-hydroxyethyl]-o-phenylene]dioxy]diacetic acid trifluoroacetate], half-maximal inhibition (IC50) was put at 0.46 µM. The same measure, in the same setting: to `O=C(O)COc1ccc(C(=O)CNC(=O)c2sc3c(c2Cc2ccccc2)CNCC3)cc1OCC(=O)O` [Example 28, [[4-[[[(3-benzyl-4,5,6,7-tetrahydrothieno[3.2-c]pyridin-2-yl)carbonyl]amino]acetyl]-o-phenylene]dioxy]diacetic acid trifluoroacetate] belongs above 10 µM. Still for that read-out and setting: to `O=C(O)CCc1ccc(C(=O)CNC(=O)CCC2CCNCC2)cc1` [Example 38, 3-[4-[N-[3-(piperidin-4-yl)propionyl]amino]acetyl]phenylpropionic acid trifluoroacetate] belongs 8 µM. The compound `O=C(O)COc1ccc(C(=O)NCC(=O)c2cc3c(s2)CCNC3)cc1OCC(=O)O` [Example 32, [[4-[N-[(4,5,6,7-tetrahydrothieno[3,2-c]pyridin-2-yl)carbonyl]methyl]carbamoyl]-o-phenylene]dioxy]diacetic acid trifluoroacetate] came in with an IC50 of 0.48 µM. On the same count and under the same terms, the result for `CCOC(=O)COc1ccc(CCNC(=O)c2cc3c(s2)CCNC3)cc1OCC(=O)OCC` [Example 33, Diethyl [[4-[[2-[(4,5,6,7-tetrahydrothieno[3,2-c]pyridin-2-yl)carbonyl]amino]ethyl]-o-phenylene]dioxy]diacetate trifluoroacetate] reads 1.7 µM; that for `O=C(O)COc1ccc(C(=O)CNC(=O)c2cc3c(s2)CCNC3)nc1` [Example 44, 2-[[4,5,6,7-tetrahydrothieno[3,2-c]pyridin-2-yl)carbonylamino]acetyl]pyridin-5-yloxyacetic acid trifluoroacetate], 0.72 µM; that for `CN(CC(=O)c1ccc(OCC(=O)O)c(OCC(=O)O)c1)C(=O)CC1CCNCC1` [Example 37, [[4-[[N-[2-(piperidin-4-yl)acetyl]-N-methylamino]acetyl]-o-phenylene]dioxy]diacetic acid trifluoroacetate], 4.9 µM. For the compound `O=C(O)COc1ccc(CCNCc2cc3c(s2)CCNC3)cc1OCC(=O)O` [Example 40, [[4-[2-[N-[(4,5,6,7-tetrahydrothieno[3,2-c]pyridin-2-yl)methyl]amino]ethyl]-o-phenylene]dioxy]diacetic acid trifluoroacetate], the IC50 is 4 µM. As for `CCOC(=O)COc1ccc(C(=O)CNC(=O)c2cc3c(s2)CCNC3)cc1OCC(=O)OCC` [Example 34, Diethyl [[4-[[[(4,5,6,7-tetrahydrothieno[3,2-c]pyridin2-yl)carbonyl]amino]acetyl]-o-phenylene]dioxy]diacetate trifluoroacetate], half-maximal inhibition (IC50) required 0.93 µM.

As for `O=C(O)COc1ccc(-c2cnc(CCC3CCNCC3)o2)cc1OCC(=O)O` [Example 43, [[4-[2-[2-(piperidin-4-yl)ethyl]oxazol-5-yl]-o-phenylene]dioxy]diacetic acid 1/2 sulfate], the IC50 came out at 2.8 µM. Still for that read-out and setting: to `CCCCOC(=O)COc1ccc(C(=O)CNC(=O)c2cc3c(s2)CCNC3)cc1OCC(=O)OCCCC` [Example 56, Di-n-butyl [[4-[[[(4,5,6,7-tetrahydrothieno [3,2-c]pyridin-2-yl)carbonyl]amino]acetyl]-o-phenylene]dioxy]diacetate trifluoroacetate] belongs 1.1 µM; to `O=C(O)COc1ccc(-c2nc(C(=O)c3cc4c(s3)CCNC4)cs2)cc1` [Example 47, 4-[[4-(4,5,6,7-tetrahydrothieno[3,2-c]pyridin-2-yl)carbonyl]thiazol-2-yl]phenoxyacetic acid trifluoroacetate], 6.4 µM. In turn, `COc1cc(C(=O)CNC(=O)c2cc3c(s2)CCNC3)ccc1OCC(=O)O` [Example 26, 4-[[4,5,6,7-tetrahydrothieno[3.2-c]pyridin-2-yl)carbonyl]aminoacetyl]-2-methoxyphenoxyacetic acid trifluoroacetate] gave an IC50 of 1 µM. The same measure, in the same setting: the result for `O=C(O)COc1ccc(C(=O)CNC(=O)CCCC2CCNCC2)cc1OCC(=O)O` [Example 36, [[4-[[N-[4-(piperidin-4-yl)butyryl]amino]acetyl]-o-phenylene]dioxy]diaceticacid trifluoroacetate] reads 9 µM.

Staying with this experiment, now noted: platelet aggregation, ADP 5 μM inducer.
In the case of `O=C(O)COc1ccc(C(=O)CNC(=O)c2cc3c(s2)CCNC3)cc1OCC(=O)O` [Example 29, [[4-[[[(4,5,6,7-tetrahydrothieno[3.2-c]pyridin-2-yl)carbonyl]amino]acetyl]-o-phenylene]dioxy]diacetic acid trifluoroacetate], the midpoint of inhibition, the IC50, lay at 0.23 µM.

The target in another experiment is T1, human platelet GPIIb/IIIa (Homo sapiens, UniProt P05106+P08514).
T1 construct: platelets collected from healthy adults; from tissue; host or cells: platelets from healthy adults (solubilized with octylglucoside, purified on GRGDSPK-Sepharose)
T1 sequence (P08514 32-887 limits assumed): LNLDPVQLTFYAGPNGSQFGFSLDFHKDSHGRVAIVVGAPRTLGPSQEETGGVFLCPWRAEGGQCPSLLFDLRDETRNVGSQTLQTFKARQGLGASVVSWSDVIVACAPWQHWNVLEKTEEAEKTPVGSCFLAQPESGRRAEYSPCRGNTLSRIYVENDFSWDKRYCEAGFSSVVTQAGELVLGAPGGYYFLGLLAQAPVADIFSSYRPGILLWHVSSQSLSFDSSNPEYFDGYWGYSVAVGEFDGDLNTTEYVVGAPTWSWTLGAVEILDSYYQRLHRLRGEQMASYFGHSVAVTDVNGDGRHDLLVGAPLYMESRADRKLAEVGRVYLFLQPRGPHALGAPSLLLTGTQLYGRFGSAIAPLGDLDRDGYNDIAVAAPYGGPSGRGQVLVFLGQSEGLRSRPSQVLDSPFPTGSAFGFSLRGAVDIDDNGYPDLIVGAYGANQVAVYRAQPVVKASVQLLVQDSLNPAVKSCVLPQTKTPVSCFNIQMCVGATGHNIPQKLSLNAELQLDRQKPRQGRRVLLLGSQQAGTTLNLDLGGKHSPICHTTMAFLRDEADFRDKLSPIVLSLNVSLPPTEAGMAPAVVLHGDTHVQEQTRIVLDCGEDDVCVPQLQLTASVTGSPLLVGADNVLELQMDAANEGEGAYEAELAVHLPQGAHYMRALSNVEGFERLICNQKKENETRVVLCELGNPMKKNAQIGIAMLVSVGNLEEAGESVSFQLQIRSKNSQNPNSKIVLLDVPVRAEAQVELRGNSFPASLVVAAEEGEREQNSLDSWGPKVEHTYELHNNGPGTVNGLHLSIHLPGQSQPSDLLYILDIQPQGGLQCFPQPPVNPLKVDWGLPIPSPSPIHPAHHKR
T1 sequence (P08514 891-1039 limits assumed): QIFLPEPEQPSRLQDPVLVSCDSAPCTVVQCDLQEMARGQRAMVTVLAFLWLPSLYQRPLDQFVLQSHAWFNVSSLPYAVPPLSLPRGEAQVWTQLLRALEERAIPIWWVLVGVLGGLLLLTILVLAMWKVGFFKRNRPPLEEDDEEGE
T1 sequence (P05106 27-788): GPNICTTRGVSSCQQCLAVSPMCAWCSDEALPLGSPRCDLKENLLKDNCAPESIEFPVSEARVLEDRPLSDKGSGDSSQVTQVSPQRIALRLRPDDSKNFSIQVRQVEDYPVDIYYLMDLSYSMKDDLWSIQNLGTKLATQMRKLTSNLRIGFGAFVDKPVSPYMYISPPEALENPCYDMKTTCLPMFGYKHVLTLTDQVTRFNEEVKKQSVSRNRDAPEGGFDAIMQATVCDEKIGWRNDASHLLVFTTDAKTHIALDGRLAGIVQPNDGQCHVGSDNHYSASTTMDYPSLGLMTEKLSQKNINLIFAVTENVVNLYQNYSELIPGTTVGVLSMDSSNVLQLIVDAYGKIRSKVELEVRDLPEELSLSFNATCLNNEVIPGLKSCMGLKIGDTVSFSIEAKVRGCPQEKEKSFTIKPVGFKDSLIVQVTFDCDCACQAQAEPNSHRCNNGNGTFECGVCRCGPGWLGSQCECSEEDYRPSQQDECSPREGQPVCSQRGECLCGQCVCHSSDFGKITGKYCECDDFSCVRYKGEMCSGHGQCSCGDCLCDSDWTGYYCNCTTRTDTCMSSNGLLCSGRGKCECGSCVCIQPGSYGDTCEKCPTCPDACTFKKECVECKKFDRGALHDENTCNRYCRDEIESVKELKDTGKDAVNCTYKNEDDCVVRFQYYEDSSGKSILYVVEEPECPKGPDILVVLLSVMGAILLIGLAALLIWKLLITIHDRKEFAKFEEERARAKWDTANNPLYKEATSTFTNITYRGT
Kind of experiment: Pharmacological test 2: inhibition of fibrinogen bonding to platelet GPIIb/IIIa (solid phase assay, biotinylated fibrinogen). Type of experiment: binding. To be noted: fibrinogen bonding to GPIIb/IIIa. How it is done: Inhibiting effect of the compound according to the present invention on the binding of platelet GPIIb/IIIa and fibrinogen was examined with a solid phase human platelet GPIIb/IIIa bonding assay using biotinylated fibrinogen as a ligand. Human platelet GPIIb/IIIa was purified according to the method described by Pytela, R. et al. (Science, 231, 1559-1561 (1986)). […] The same amount of TBS containing 50 mM octylglucoside and 2 mM PMSF was added to the pellet obtained in order to solubilize the membrane protein at 4° C. for 20 minutes. […] The solubilized protein solution was adsorbed on a GRGDSPK-Sepharose column which had been equilibrated with TBS (Buffer A) containing 50 mM Octylglucoside, 1 mM CaCl2 and MgCl2. After the column was washed with Buffer A, the adsorbed GPIIb/IIIa was eluted with Buffer A containing 2 mM GRGDSP peptide. GRGDSPK-Sepharose was prepared by coupling GRGDSPK peptide and CNBr-activated Sepharose 4B (Pharmacia) according to the instruction of the manufacturer. Then, solid phase human platelet GPIIb/IIIa bonding assay was carried out according to the method of Mori et al. […] Purified human platelet GPIIb/IIIa was adjusted in an amount of 2 μg/ml and adsorbed in an amount of 50 μl on a 96 well-microtiter plate at 4° C. overnight. After washing with TBS containing 1 mM CaCl2 and 1 mM MgCl2, 100 μl of 1% bovine serum albumin was added, blocking was conducted at 4° C. overnight. […] After washing with TBS-Tween 20, 50 μl of peroxidase labelled avidin which had been diluted with TBS to 4,000 times was added. The reaction was continued for 20 minutes. […] A 50 μl portion of a 0.1M citrate buffer containing 0.05% NaN3 was added to stop the reaction, and absorbance at 415 nm was measured. The rate of Bonding inhibition was calculated from the following formula: [formula]
Regarding `O=C(O)CCc1ccc(C(=O)CNC(=O)c2cc3c(s2)CCNC3)cc1` [Example 20, 3-[4-[[(4,5,6,7-tetrahydrothieno[3,2-c]pyridin-2-yl)carbonyl]aminoacetyl]phenyl]propionic acid trifluoroacetate], half-maximal inhibition (IC50) was put at 34 µM.

These data come from patent US5594004A, “Compound with platelet aggregation inhibitor activity” (Meiji Seika Kabushiki Kaisha, priority 1993, dated 1997).
